Assay type in all cases: cell-based
Test [1] deals with hEBI2 (Homo sapiens, UniProt P32249). Kind of test: β-arrestin Pathhunter assay. The note with it: for EC50: HEK293-BAEA transiently transfected with hEBI2-prolink, read-out: EC50, β-arrestin recruitment. Further details: host or cells: HEK293-BAEA, transient transfection with Fugene6. From the text:
Several assay technologies (Transfluor™, (Ghosh, R. N., et al. (2005). Quantitative cell-based high-content screening for vasopressin receptor agonists using transfluor technology. J Biomol Screen 10.; Granas, C., at al. (2005). High content screening for G protein-coupled receptors using cell-based protein translocation assays. Comb Chem High Throughput Screen 8.); Pathhunter™, (Hammer, M. M., et al. (2007). A novel enzyme complementation-based assay for monitoring G-protein-coupled receptor internalization. Faseb J, 21; Wehrman, T. S., at al. (2005). Enzymatic detection of protein translocation. Nat Methods 2), Tango™, (Barnea, G., et al. (2008). Here we have applied the Pathhunter™ technology (DiscoverRx) to probe for an interaction of EBI2 with B-arrestin. For that human EBI2 was cloned into the Prolink™ vector (DiscoveRx) for GPCR-prolink fusion protein production. Parental HEK293 cells that stably express β-arrestin2-β-gal-EA fusion protein (HEK293-BAEA) were detached and transiently transfected with hEBI2-prolink vector using Fugene6 transfection reagent in suspension mode. Transfected cells in assay medium (Phenol Red-free DMEM with 10% FBS) were plated into white solid 384 well plates at 15,000 cells/25 μl/well. After overnight incubation, 200 nl of test molecules were transferred into the cell plates by PinTool™ (GNF Systems) followed by 1-2 hour incubation at 37° C., 5% CO2. Flash detection reagents were added at 12.5 μl/well. After 5 min—1 hr room temperature incubation, the cell plates were read on CLIPR™ (Perkin Elmer) or Acquest™ (Molecular Devices) for luminescence signal.

Test [2] deals with T1, GR (NR3C1) (Homo sapiens, UniProt P04150).
T1 sequence (P04150 1-777): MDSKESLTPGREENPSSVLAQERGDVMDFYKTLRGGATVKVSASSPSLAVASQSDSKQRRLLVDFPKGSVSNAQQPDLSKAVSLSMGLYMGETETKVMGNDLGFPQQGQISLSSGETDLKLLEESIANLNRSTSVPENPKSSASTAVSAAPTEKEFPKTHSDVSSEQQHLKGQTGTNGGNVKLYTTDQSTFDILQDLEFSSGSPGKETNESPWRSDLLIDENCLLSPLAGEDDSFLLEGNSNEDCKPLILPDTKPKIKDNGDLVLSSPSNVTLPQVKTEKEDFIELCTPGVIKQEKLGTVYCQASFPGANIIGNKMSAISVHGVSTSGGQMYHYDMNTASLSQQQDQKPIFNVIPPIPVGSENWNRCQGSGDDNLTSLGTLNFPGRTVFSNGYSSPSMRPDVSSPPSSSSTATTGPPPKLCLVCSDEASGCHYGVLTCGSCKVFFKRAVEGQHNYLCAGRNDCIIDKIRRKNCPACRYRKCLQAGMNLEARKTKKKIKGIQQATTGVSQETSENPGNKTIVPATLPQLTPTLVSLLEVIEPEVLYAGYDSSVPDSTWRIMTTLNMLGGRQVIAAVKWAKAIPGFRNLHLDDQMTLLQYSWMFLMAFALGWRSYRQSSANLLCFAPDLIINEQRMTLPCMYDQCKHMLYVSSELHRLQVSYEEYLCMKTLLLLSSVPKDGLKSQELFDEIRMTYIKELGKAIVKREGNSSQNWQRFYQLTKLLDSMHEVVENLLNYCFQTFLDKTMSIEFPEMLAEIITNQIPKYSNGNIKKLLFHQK
Kind of test: nuclear hormone receptor reporter gene assay. As to conditions: concentrations up to 10 μM. From the text: (§1) So far oxysterols have been noted to have various physiological activities namely regulate the expression of genes that participate in both sterol and fat metabolism, serve as substrates for the synthesis of bile acids, and are intermediates in the transfer of sterols from the periphery to the liver (Russell, D. W. (2000). Oxysterol biosynthetic enzymes. Biochim. Biophys. Acta 1529, 126-135). […] This included binding assays for 26 different GPCRs, functional assays of 9 different GPCRs, 40 kinase assays, as well as selected ion channels, proteases, transporter and enzyme assays.

Test [3] addresses T2, ERa (NR3A1) (Homo sapiens, UniProt P03372).
T2 sequence (P03372 1-595): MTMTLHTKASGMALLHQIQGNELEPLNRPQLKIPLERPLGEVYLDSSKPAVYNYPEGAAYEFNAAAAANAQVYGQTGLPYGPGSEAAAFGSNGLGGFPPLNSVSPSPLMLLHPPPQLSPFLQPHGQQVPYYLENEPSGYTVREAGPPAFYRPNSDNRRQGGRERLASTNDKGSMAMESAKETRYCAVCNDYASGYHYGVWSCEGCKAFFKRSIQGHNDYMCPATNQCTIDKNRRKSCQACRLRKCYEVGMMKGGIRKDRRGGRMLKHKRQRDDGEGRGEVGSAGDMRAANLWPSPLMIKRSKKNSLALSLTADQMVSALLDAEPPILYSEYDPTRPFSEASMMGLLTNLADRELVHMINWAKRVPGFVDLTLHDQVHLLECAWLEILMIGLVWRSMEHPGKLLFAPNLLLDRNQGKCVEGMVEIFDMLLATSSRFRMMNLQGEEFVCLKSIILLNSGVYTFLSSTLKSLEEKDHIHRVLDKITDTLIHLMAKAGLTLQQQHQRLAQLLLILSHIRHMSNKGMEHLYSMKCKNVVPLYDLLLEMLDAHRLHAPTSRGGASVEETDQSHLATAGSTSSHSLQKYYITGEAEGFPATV
Kind of test: nuclear hormone receptor reporter gene assay. As to conditions: concentrations up to 10 μM.
Source text: as §1

Test [4] concerns the target T3, FXRa (NR1H4) (Homo sapiens, UniProt Q96RI1).
T3 sequence (Q96RI1 1-486): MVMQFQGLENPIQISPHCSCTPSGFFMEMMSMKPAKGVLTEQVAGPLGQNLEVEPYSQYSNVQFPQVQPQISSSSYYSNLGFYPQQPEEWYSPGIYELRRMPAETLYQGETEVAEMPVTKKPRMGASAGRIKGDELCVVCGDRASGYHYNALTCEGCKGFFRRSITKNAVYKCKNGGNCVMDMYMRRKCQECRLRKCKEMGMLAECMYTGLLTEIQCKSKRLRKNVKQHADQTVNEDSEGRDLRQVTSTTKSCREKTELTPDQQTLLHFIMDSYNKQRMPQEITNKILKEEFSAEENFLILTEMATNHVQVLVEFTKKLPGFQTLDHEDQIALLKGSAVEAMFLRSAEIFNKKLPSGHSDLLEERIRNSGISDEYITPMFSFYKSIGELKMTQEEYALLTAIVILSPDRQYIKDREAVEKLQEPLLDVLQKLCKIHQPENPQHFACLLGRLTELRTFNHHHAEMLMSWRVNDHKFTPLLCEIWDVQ
Kind of test: nuclear hormone receptor reporter gene assay. The note with it: concentrations up to 10 μM.
Source text: as §1

hEBI2, sequence (P32249 whole entry): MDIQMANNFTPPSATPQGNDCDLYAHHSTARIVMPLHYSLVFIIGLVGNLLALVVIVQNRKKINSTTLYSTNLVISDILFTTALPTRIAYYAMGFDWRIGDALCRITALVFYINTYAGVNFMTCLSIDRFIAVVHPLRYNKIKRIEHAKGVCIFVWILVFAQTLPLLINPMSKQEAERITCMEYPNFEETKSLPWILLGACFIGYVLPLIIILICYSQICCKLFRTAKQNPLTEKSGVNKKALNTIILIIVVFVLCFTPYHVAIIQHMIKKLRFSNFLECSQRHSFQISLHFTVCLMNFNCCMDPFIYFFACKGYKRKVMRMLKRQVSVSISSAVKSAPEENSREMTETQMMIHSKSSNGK

In the case of `C[C@H](CCCC(C)(C)O)[C@H]1CC[C@H]2[C@@H]3[C@H](O)C=C4C[C@@H](O)CC[C@]4(C)[C@H]3CC[C@]12C` [7a,25DHC, cholest-5-ene-3b,7a,25-triol], the EC50 in test [1] amounted to 8 nM. Further, in test [2], the “activation of GR” value was “did not activate”. The “activation of ERa” value in test [3] was “did not activate”. The “activation of FXRa” value in test [4] is recorded as “did not activate”.
Regarding `CC(CO)CCC[C@@H](C)[C@H]1CC[C@H]2[C@@H]3[C@H](O)C=C4C[C@@H](O)CC[C@]4(C)[C@H]3CC[C@]12C` (stereo partly drawn) [7a,27DHC, cholest-5-ene-3b,7a,27-triol], in test [2], the “activation of GR” value is listed as “did not activate”. Also, the “activation of ERa” value in test [3] is on record as “did not activate”. Further, the “activation of FXRa” value in test [4] is on record as “did not activate”.
Take `C[C@H](CCCC(C)(C)O)[C@H]1CC[C@H]2[C@@H]3[C@@H](O)C=C4C[C@@H](O)CC[C@]4(C)[C@H]3CC[C@]12C` [7b,25DHC, cholest-5-ene-3b,7b,25-triol]: in test [1], the “efficacy, β-arrestin recruitment” value is listed as 48% and the concentration for a half-maximal effect (EC50) was determined as 837 nM.

Values taken from US8497075B2, “Methods of identifying a modulator that inhibits the binding between Epstein-Barr virus induced receptor 2 and cholesterol derived ligands” (Novartis AG, priority 2008, dated 2013).
